Reference: US20210317090A1, “AMINO ACID DEPLETION AGENTS AS ANTIPROLIFERATIVE AGENTS” (University of Central Florida Research Foundation, Inc., priority 2018, published 2021)
Where two headings read alike, the source gives them in different places.

Key:
[1] = target: T1, LAT-1 (Homo sapiens, UniProt Q01650); experiment: 3H-Leucine uptake assay; assay type: cell-based; conditions: L3.6pl cells, increasing concentration, 15 min uptake (FIG. 10D, 10E)
T1 construct: endogenous in cells; host or cells: L3.6pl human pancreatic cancer cells
Experimental: ^3H-Leucine uptake experiments were performed according to the protocol developed by Hälfliger et al. (2018) (referenced below with the following changes. Briefly, cells were seeded at 60% confluency in a 24-well plate and incubated for 4 h at 37° C. After 4 hours, different concentrations of compound 10 were added and the cells were then incubated overnight. L-^3H-leucine uptake inhibition was measured for 15 minutes using a 12 μM stock of L-[^3H]leucine (79 Ci/mmol). The final concentration of ^3H-leucine in each well was 1.2 uM. This concentration produced a CPM reading of ˜4000 cpm for the control. Uptake was terminated by removing the buffer solution followed by washing the cells with cold Na^+-free Hank's Balanced Salt Solution. Cells were then lysed to give ˜500 μL of cell lysate. A portion of the cell lysate (200 μL) was mixed with Scintiverse™ BD Cocktail for determining radiocounts. The radioactivity was measured with a scintillation counter (Beckman Coulter LS 6500 Multi-Purpose Scintillation Counter). Another portion of the cell lysate (300 μL) was used for protein determination using the BCA method. The final data was expressed as cpm/microgram of protein to account for the different number of cells remaining after the experiment. This was necessary because compound 10 was toxic and less cells were present after the overnight incubation (24 h). […]

[2] = system: CHO K1 cells; experiment: Cytotoxicity dose-response (MTS cell viability) in CHO K1 cells; assay type: cell-based, Chinese hamster
Experimental: CHO K1 Studies. Wild type Chinese hamster ovary (CHO K1) cells were chosen to first study the synthetic compounds' impact on polyamine metabolism. The CHO K1 cell line has high polyamine transport activity and was useful in screening compounds for their polyamine transport inhibitor activity. A dose-response curve was obtained for each compound to determine their toxicity in CHO K1 cells after 48 h incubation. Compound 9 (1666.177) was non-toxic up to the highest dose tested (15 μM).
(§1) Regarding the biological studies performed in the following examples, it is noted that CHO K1, CHO-MG, and L3.6pl cells were grown in RPMI 1640 medium supplemented with 10% fetal bovine serum (FBS) and 1% penicillin/streptomycin. All cells were grown at 37° C. under a humidified 5% CO2 atmosphere. Aminoguanidine (1 mM used for CHO K1 and CHOMG cells and 250 μM for L3.6pl) was added to the growth medium to prevent oxidation of the compounds of the bovine serum amine oxidase enzyme that is present in calf serum. The cells used were in early to mid log phase and CHO and CHOMG were plated out at 1000 cells/well, whereas the L3.6pl cells were plated at 500 cells/well in a 96 well plate format.
(§2) This example illustrates aspects according to various embodiments pertaining to IC50 determinations and cell viability studies. Cell growth was assayed in sterile 96-well microtiter plates (Costar 3599, Corning, N.Y.). CHO K1 or CHOMG cells were plated at 1,000 cells/70 μL and L3.6pl cells at 500 cells/70 μL. The drug solutions of appropriate concentration in phosphate buffered saline (PBS) were added 10 μL per well after overnight incubation. After drug exposure (e.g., for 48 h for CHO K1 and CHO-MG and 48 h or 72 h for L3.6pl), cell growth was determined by measuring formazan formation from the 3-(4,5dimethylthiazol-2-yl)-5-(3-carboxymethoxyphenyl)-2-(4-sulfenyl)-2H tetrazolium, inner salt (MTS) using SynergyMx Biotek microplate reader for absorbance (490 nm) measurements.^27 All experiments were run in triplicate.

[3] = system: L3.6pl human pancreatic cancer cells; experiment: Cytotoxicity dose-response (MTS) in L3.6pl cells; assay type: cell-based; conditions: for IC50: Homo sapiens, L3.6pl cells
Experimental: L3.6pl Studies. Compounds 9 and 10 were evaluated in the metastatic human pancreatic cancer cell line, L3.6pl. L3.6pl has a K-ras mutation, and high polyamine uptake activity.^7 A dose-response curve was obtained for each compound in L3.6pl cells to determine the 72 h L3.6pl IC50 value, described as the dose at which L3.6pl cells were 50% viable compared to the untreated control.
as §1, §2

[4] = system: L3.6pl cells; experiment: Rescue by exogenous native polyamines in L3.6pl cells; assay type: cell-based, human; conditions: 72 h, polyamine 1 μM or 5 μM, compound 10 at toxic dose (5 μM or higher)
Experimental: The question remained as to whether exogenous polyamines could enter and ‘rescue’ the cells back to the growth rate of untreated control. A series of experiments were conducted to determine if cells treated with compound 10 could be rescued by exogenous polyamines. To test this hypothesis, L3.6pl cells were incubated for 72 h with an increasing dose of compound 10 and a dose of one of the native polyamines (putrescine, spermidine, or spermine either at a fixed dose of 1 μM or 5 μM).
FIG. 10A is an example according to various embodiments, illustrating the inability of native polyamine putrescine (Put at 1 μM and 5 μM) to rescue L3.6pl cells treated with compound 10 (e.g., from 2-15 μM). FIG. 10B is an example according to various embodiments, illustrating inability of native polyamine spermidine (Spd at 1 μM and 5 μM) to rescue L3.6pl cells treated with compound 10 (e.g., from 2-15 μM). FIG. 10C is an example according to various embodiments, illustrating inability of the native polyamine spermine (Spm at 1 μM and 5 μM) to rescue L3.6pl cells treated with compound 10 (2-15 μM). The L3.6pl cells were incubated with 250 μM aminoguanidine (AG) for 24 h prior to the addition of compound 10, followed by 72 h incubation at 37° C. […]

T1 sequence (Q01650 whole entry): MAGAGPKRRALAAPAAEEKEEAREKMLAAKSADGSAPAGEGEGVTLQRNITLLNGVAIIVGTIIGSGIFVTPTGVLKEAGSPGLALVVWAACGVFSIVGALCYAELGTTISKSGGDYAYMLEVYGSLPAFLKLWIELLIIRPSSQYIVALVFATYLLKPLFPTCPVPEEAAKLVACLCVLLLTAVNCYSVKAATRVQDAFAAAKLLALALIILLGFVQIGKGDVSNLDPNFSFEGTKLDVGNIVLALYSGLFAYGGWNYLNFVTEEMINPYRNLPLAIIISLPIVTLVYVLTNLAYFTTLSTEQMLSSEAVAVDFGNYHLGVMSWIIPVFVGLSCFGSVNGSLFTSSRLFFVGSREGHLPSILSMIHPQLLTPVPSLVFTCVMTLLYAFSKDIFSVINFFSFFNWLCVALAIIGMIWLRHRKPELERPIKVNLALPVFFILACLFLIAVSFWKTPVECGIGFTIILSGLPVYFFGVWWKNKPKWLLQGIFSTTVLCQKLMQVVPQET
T1 sequence (P08195 102-630 partner): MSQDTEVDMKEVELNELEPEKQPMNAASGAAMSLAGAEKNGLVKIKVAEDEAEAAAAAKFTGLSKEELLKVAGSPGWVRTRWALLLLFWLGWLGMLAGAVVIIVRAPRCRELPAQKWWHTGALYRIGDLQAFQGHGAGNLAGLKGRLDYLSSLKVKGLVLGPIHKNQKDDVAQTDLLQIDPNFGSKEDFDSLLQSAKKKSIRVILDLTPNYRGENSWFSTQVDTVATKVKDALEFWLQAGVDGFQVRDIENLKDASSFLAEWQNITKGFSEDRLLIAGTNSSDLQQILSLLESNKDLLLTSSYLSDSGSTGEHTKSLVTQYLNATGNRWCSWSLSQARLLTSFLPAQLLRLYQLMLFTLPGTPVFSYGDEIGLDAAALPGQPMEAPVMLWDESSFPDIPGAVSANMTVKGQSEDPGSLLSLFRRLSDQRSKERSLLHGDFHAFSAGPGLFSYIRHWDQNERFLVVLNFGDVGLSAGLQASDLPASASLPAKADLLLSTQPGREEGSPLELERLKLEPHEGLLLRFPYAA

CC(C)CCN1CCN(C(CNCc2ccccc2)CC2CCCCC2)CC1CC(C)C.Cl.Cl.Cl (centres unmarked) [Compound 10, Benzyl-{3-cyclohexyl-2-[3-isobutyl-4-(3-methyl-butyl)-piperazin-1-yl]-propyl}-amine trihydrochloride salt]
3H-Leucine uptake [1]: able to inhibit the uptake | toxicity of compound alone ([2]; CHO K1, highest concentration tested (5 μM), 48 h): nontoxic | IC50 ([2]; Cricetulus griseus, CHO K1 cells, 48 h incubation): 10.8 ± 0.22 µM | IC50 ([3]; 48 h, read-out: 48 h IC50): 3.48 ± 0.3 µM | IC50 ([3]; 72 h, read-out: 72 h IC50): 5.9 ± 0.2 µM | toxicity of compound alone ([3]; L3.6pl, second highest concentration tested (1 μM), 72 h): nontoxic | toxicity to L3.6pl cancer cells relative to CHO K1 and CHO-MG cell lines ([3]; from 48 h IC50 values): approximately three fold more toxic | rescue of treated cells by putrescine, spermidine or spermine [4]: none of the three native polyamines (at 1 μM or 5 μM) were able to rescue
